The record followed here is patent publication US7947726B2, “Non-steroidal ligands for the glucocorticoid receptor, and compositions thereof” (The Regents of the University of California, priority 2002, dated 2011).

SMILES strings stand for the structures. Where two headings read alike, the source gives them in different places.

For assay [1], the target named is T1, glucocorticoid receptor (GR) (Homo sapiens, UniProt P04150).
T1 construct: purchased Panvera Corp, Madison, Wis
T1 sequence (P04150 1-777): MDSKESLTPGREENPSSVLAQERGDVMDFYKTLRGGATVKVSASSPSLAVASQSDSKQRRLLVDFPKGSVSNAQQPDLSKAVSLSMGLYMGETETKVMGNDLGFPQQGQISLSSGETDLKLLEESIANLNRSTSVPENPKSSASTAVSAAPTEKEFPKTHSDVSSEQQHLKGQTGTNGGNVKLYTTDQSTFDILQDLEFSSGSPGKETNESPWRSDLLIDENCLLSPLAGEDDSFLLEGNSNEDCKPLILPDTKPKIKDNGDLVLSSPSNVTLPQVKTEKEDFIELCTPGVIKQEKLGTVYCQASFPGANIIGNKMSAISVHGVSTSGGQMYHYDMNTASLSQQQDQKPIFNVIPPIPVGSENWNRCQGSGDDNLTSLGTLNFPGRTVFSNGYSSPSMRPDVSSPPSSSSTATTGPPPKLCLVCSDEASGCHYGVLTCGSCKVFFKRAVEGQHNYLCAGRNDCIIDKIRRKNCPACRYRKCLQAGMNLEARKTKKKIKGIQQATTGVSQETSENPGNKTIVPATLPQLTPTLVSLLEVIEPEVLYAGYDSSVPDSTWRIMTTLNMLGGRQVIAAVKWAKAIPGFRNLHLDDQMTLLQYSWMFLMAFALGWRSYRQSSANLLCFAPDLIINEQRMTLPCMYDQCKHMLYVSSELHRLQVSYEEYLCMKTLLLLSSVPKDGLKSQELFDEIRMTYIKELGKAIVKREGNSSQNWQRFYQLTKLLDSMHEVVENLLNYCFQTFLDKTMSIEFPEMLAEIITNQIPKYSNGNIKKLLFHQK
The assay can be described thus: Glucocorticoid Receptor Competitor Assay Kit (Panvera) ligand binding. To be noted: Table 3; relative binding affinity, dexamethasone = 100. The text has this:
The Glucocorticoid Receptor Competitor Assay Kit (Panvera Corp, Madison, Wis.) was used for ligand binding studies. The recommended room temperature protocol was followed for all assayed ligands.

In a further assay the target is T2, MR (Homo sapiens, UniProt P08235).
T2 sequence (P08235 1-984): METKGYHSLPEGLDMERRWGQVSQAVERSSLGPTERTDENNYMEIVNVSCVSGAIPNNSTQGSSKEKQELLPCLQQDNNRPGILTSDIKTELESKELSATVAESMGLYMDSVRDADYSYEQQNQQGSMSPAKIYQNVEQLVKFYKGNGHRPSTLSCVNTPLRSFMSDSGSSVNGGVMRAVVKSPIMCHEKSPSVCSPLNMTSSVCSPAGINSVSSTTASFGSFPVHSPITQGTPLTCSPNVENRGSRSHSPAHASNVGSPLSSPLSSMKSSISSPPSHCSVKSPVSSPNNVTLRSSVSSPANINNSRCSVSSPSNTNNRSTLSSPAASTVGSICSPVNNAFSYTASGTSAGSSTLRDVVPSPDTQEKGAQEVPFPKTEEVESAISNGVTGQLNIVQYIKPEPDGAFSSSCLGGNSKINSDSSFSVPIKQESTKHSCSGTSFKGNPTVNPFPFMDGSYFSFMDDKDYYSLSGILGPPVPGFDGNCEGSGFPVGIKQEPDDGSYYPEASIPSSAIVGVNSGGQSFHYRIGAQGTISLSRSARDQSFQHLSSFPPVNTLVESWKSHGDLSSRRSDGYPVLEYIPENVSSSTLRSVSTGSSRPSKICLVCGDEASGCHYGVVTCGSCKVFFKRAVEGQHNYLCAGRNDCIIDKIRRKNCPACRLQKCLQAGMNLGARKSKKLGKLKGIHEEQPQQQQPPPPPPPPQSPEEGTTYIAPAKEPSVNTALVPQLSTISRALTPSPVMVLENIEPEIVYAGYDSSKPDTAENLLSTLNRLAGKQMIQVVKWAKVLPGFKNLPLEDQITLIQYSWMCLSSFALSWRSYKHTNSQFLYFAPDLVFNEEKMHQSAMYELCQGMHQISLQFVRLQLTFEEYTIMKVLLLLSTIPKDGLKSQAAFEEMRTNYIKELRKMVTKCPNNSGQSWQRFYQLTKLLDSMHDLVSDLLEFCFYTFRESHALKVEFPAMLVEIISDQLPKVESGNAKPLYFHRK
The experiment in a line: MR activation (max fold activation). The assay is classed as cell-based. To be noted: Table 4.

For assay [2], the target named is T3, GR (Homo sapiens, UniProt P04150).
T3 construct: expressed in transfected cells; host or cells: CV-1 cells, transient transfection (plasmid a gift of Keith Yamamoto, UCSF)
T3 sequence (P04150 1-777): T1 sequence (P04150 1-777)
The experiment in a line: GRE (TAT3-Luc) activation luciferase assay in CV-1 cells transfected with GR. In kind it is cell-based. To be noted: Table 4; for EC50: read-out: GR pot (EC50). The method, then: Cells were plated into tissue culture treated, 96 well flat bottom plates (25,000 cells/well), and incubated for 12 h at 37° C. Cells were then transfected using the Lipofectamine PLUS transfection reagent (Gibco BRL). DNA-lipid complexes of 5 ng GR, 50 ng TAT3-Luc, 7.5 ng β-galactosidase, 1 μL-well PLUS reagent and 0.67 μL-well lipofectamine in 50 μL/well serum free media were added to cells and incubated for 4 h at 37° C. Complexes were removed and hormones diluted in 5% charcoal-stripped FBS were added to the cells, which were then incubated for 24 hours at 37° C. Media was removed and the cells were washed with 100 μL Ca^+2, Mg^+2 free phosphate buffered saline (PBS). Lysis was achieved by adding 50 μL of Passive Lysis Buffer (Promega Corp, Madison, Wis.) and shaking the plate for 15 min. 15 μL of this lysate was then used to assay β-galactosidase activity (β-galactosidase enzyme assay system, Promega Corp., recommended procedures followed). The Luciferase Assay System (Promega Corp.) was used to assay luciferase activity. 100 μL of luciferase assay reagent was added rapidly to the plate and luminescence was measured for 10 ms/well on an Analyst AD Detection System (LJL Biosystems, Sunnyvale, Calif.).

In assay [3] the target is T4, GR (Rattus norvegicus, UniProt P06536).
T4 construct: expressed in transfected cells; gift of Keith Yamamoto
T4 sequence (P06536 1-795): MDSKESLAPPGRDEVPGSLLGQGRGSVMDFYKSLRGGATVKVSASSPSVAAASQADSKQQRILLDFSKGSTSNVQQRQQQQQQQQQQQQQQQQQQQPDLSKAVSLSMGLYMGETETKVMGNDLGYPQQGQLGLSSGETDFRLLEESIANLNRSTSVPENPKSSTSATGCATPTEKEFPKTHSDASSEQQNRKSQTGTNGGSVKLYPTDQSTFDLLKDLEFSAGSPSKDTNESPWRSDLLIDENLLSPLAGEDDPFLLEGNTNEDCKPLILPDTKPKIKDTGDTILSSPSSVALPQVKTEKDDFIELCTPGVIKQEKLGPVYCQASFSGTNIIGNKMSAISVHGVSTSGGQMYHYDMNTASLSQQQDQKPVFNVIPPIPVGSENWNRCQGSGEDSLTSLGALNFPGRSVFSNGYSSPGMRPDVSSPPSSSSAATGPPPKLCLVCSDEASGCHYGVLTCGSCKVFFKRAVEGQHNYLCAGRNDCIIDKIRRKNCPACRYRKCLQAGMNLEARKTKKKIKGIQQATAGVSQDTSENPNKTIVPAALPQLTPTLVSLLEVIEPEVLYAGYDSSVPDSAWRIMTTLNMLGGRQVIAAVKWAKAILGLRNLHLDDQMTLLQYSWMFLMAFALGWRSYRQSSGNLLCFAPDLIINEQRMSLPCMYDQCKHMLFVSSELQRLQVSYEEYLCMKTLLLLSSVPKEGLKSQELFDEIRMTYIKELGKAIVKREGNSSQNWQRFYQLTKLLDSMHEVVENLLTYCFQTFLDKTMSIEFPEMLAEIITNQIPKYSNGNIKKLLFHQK
The experiment in a line: AP-1 repression luciferase assay in U2OS cells stably transfected with rat GR. The assay is classed as cell-based. To be noted: Table 5, TPA-stimulated U2OS cells; for EC50: read-out: Repression AP-1 pot (EC50); for Emax: 12 h, read-out: Repression AP-1 % max repression. The protocol: For API repression assays, U2OS cells stably transfected with rat GR were grown in similar media as for CV-1 cells with the exception of the FBS concentration, which was 10% and the only antibiotic was […]. Cells were plated and transfected in a similar fashion, except for plasmids, which in this case were 50 ng/well AP1-Luc and 10 ng/well β-galactosidase. Post-transfection, cells were incubated with either 50 ng/mL TPA (Phorbol 12-myristate 13-acetate), or 50 ng/mL TPA and various hormone dilutions in 10% charcoal treated FBS media. The cells were incubated for 12 h, and the lysis, β-galactosidase assay, and luciferase assay were performed as previously described.

Another assay has as its system Coll A. The experiment in a line: Coll A repression. The assay is classed as cell-based. To be noted: for EC50: read-out: Repression Coll A pot (EC50); for Emax: read-out: Repression Coll A % max repression.
In the next assay the test system is NF-κB. The assay can be described thus: NF-κB repression luciferase assay in A549 cells. The assay is classed as cell-based, human. The settings on record: Table 5, TNF-α-stimulated A549 cells; for EC50: Homo sapiens, read-out: Repression NF-KB pot (EC50). An excerpt: Plasmids for GR (human, pSG5 backbone), AP1-Luc (synthetic AP1 response element upstream of a firefly luciferase gene), TAT3-Luc (three copies of the tyrosine aminotransferase glucocorticoid response element upstream of a firefly luciferase gene), β-galactosidase (used as a transfection control), as well as two stable transfected cells lines: an A549 (human, lung carcinoma) cell line stably transfected with a κB response element upstream of a firefly luciferase gene, (R. M. Nissen et al., Genes Dev., 14(18):2314-29, (2000)) and a U2OS (human, osteosarcoma) stably transfected with rat GR (I. Rogatsky, et al., Mol. Cell. Biol., 1997, 17, 3181-3193) were a gift of Professor Keith Yamamoto (Department of Biochemistry, University of California, San Francisco).
For NF-κB repression assays, A549 cells stably transfected with a luciferase reporter were grown under the same conditions as CV-1 cells. 50,000 cells/well were plated into 96 well plates and incubated for 12 h at 37° C. Either TNF-α alone or mixed with various hormone dilutions in media were then added to the cells, which were then incubated for 8 hours. Procedures for lysis and luciferase assay were performed as previously described. Protein content was used as a control in this case and the recommended procedures using the BCA Protein Assay Kit (Roche) were followed.

What is called EC50 is the concentration that produces a half-maximal response. For the compound `CC12Cc3cnn(-c4ccc(F)cc4)c3C=C1CCCC2C(O)c1cccc(O)c1` (centres unmarked) [Compound 229, 3-{[1-(4-Fluoro-phenyl)-4a-methyl-4,4a,5,6,7,8-hexahydro-1H-benzo[f]indazol-5-yl]-hydroxy-methyl}-phenol], the “GR binding RBA (dex = 100)” value in assay [1] stood at 52. The “MR max fold activation” value on MR came to 3.1 ± 1.0. For the same compound, on GR [2], the “GRE activation max fold activation” value is given as 55 ± 2 and the EC50 was 110 ± 7 nM. On GR [3], the EC50 is 16.6 nM. Besides, the Emax at GR [3] (U2OS) was determined as 77%.
As to `C[C@]12CCC(=O)C=C1CC[C@@H]1[C@@H]2[C@@H](O)C[C@@]2(C)[C@H]1CC[C@]2(O)C(=O)CO` [Cortisol, cortisol], the EC50 with Coll A (Table 5) came to 2.1 nM; in the assay with NF-κB, 8.4 nM. For the same compound, the “Repression NF-KB % max repression” value in the assay on NF-κB is given as 83%.
For the compound `C[C@]12CCC(=O)C=C1CC[C@@H]1[C@@H]2[C@@H](O)C[C@]2(C=O)[C@@H](C(=O)CO)CC[C@@H]12` [Aldosterone, reference compound], the “MR max fold activation” value at MR was 6.1 ± 1.5. In addition, at GR [2], the “GRE activation max fold activation” value was 41 and the EC50 is 765 nM.
`CC12Cc3cnn(-c4ccc(F)cc4)c3C=C1CCCC2C(O)c1csc2ccccc12` (centres unmarked) [Compound 221, 3a,7a-(Dihydro-benzo[b]thiophen-3-yl)-[1-(4-fluoro-phenyl)-4a-methyl-4,4a,5,6,7,8-hexahydro-1H-benzo[f]indazol-5-yl]-methanol]: the “GR binding RBA (dex = 100)” value in assay [1] is 93. Also, at MR, the “MR max fold activation” value was 2.0 ± 0.7. For the same compound, on GR [2], the “GRE activation max fold activation” value was 21. Also, the values for the EC50 on GR [2] and on GR [3] were 313 nM and 5.3 nM, respectively. The Emax on GR [3] (U2OS) was 74%.
As to `CC12Cc3cnn(-c4ccc(F)cc4)c3C=C1CCCC2C(O)c1ccc(O)cc1` (centres unmarked) [Compound 231, 4-{[1-(4-Fluoro-phenyl)-4a-methyl-4,4a,5,6,7,8-hexahydro-1H-benzo[f]indazol-5-yl]-hydroxy-methyl}-phenol], the “GR binding RBA (dex = 100)” value in assay [1] was determined as 36. For the same compound, the Emax in the assay on Coll A (Table 5) turned out to be 70%; on GR [3] (U2OS), 68%. Besides, the results for the EC50 in the assay with Coll A (Table 5), at GR [2] and on GR [3] were 28 nM, 330 ± 92 nM and 12.8 nM, respectively. Besides, the “MR max fold activation” value on MR turned out to be 2.9 ± 0.5. Besides, on GR [2], the “GRE activation max fold activation” value was found to be 69 ± 25.
For the compound `C[C@@H]1C[C@H]2[C@@H]3CCC4=CC(=O)C=C[C@]4(C)[C@@]3(F)[C@@H](O)C[C@]2(C)[C@@]1(O)C(=O)CO` [Dexamethasone, dexamethasone, reference compound], the Emax amounted to 84% with Coll A (Table 2) and 89% on GR [3]. In addition, the EC50 amounted to 0.36 nM in the assay on Coll A (Table 2) and 1.5 nM in the assay with NF-κB. In addition, in the assay on Coll A (Table 5), the “Repression Coll A % max repression” value is 84%. Also, the “Repression NF-KB % max repression” value with NF-κB is recorded as 87%.
